From PubChem BioAssay (NCI)
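These data come from cells grown in 96-well plates and exposed to compound for 48 hours at five concentrations. GI50: concentration for 50% inhibition of growth. TGI: total growth inhibition.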

What was measured:
Test in all cases: NCI-60 cell line screen, 48 h
M14 melanoma = tested on: M14 melanoma
UACC-257 melanoma = tested on: UACC-257 melanoma
ACHN renal = tested on: ACHN renal
SK-MEL-2 melanoma = tested on: SK-MEL-2 melanoma
MALME-3M melanoma = tested on: MALME-3M melanoma
OVCAR-3 ovarian = tested on: OVCAR-3 ovarian
NCI-H226 lung = tested on: NCI-H226 lung
CAKI-1 renal = tested on: CAKI-1 renal
HOP-62 NSCLC = tested on: HOP-62 NSCLC
NCI-H460 lung = tested on: NCI-H460 lung

## O=C1C=Cc2noc3cccc1c23
M14 melanoma
  TGI: 23.2 µM
UACC-257 melanoma
  TGI: 26.4 µM
ACHN renal
  TGI: 7.85 µM
SK-MEL-2 melanoma
  TGI: 21.2 µM
MALME-3M melanoma
  TGI: 25.7 µM
OVCAR-3 ovarian
  TGI: 10.9 µM
NCI-H226 lung
  TGI: 35.1 µM
CAKI-1 renal
  TGI: 25.4 µM

## ClCc1ccc(Cn2cnc3ncnc(Cl)c32)cc1
M14 melanoma
  GI50: 2.73 µM
  TGI: 13 µM
UACC-257 melanoma
  GI50: 1.57 µM
  TGI: 3.48 µM
HOP-62 NSCLC
  GI50: 1.78 µM
  TGI: 3.16 µM
SK-MEL-2 melanoma
  GI50: 6.3 µM
  TGI: > 100 µM
OVCAR-3 ovarian
  GI50: 1.8 µM
  TGI: 3.39 µM
NCI-H226 lung
  GI50: 2.99 µM
  TGI: 12 µM
NCI-H460 lung
  GI50: 1.78 µM
  TGI: 4.31 µM
CAKI-1 renal
  GI50: 2.01 µM
  TGI: 4.42 µM

## C(=C1/CCCCC([n+]2ccccc2)=N1)/c1ccccc1
M14 melanoma
  TGI: > 100 µM
ACHN renal
  TGI: > 100 µM
HOP-62 NSCLC
  TGI: > 100 µM
SK-MEL-2 melanoma
  TGI: > 100 µM
MALME-3M melanoma
  TGI: > 100 µM
OVCAR-3 ovarian
  TGI: > 100 µM
NCI-H226 lung
  TGI: > 100 µM
NCI-H460 lung
  TGI: > 100 µM
CAKI-1 renal
  TGI: > 100 µM

## COc1ccc(-c2nc(N)nc(-c3cc(C)ccc3O)c2Cl)cc1
M14 melanoma
  TGI: > 100 µM
UACC-257 melanoma
  TGI: > 100 µM
ACHN renal
  TGI: > 100 µM
HOP-62 NSCLC
  TGI: > 100 µM
MALME-3M melanoma
  TGI: > 100 µM
OVCAR-3 ovarian
  TGI: 89.8 µM
NCI-H226 lung
  TGI: > 100 µM
NCI-H460 lung
  TGI: > 100 µM
CAKI-1 renal
  TGI: > 100 µM

## Clc1ccc(CCN2CCOCC2)c(Cl)c1
M14 melanoma
  TGI: > 100 µM
UACC-257 melanoma
  TGI: > 100 µM
ACHN renal
  TGI: > 100 µM
HOP-62 NSCLC
  TGI: > 100 µM
SK-MEL-2 melanoma
  TGI: > 100 µM
MALME-3M melanoma
  TGI: > 100 µM
NCI-H460 lung
  TGI: > 100 µM
CAKI-1 renal
  TGI: > 100 µM

## Cc1nc(Nc2ccc([N+](=O)[O-])cc2)sc1C(=O)/C=C/c1ccc(N(C)C)cc1
UACC-257 melanoma
  TGI: > 100 µM
ACHN renal
  TGI: > 100 µM
HOP-62 NSCLC
  TGI: > 100 µM
SK-MEL-2 melanoma
  TGI: > 100 µM
MALME-3M melanoma
  TGI: > 100 µM
OVCAR-3 ovarian
  TGI: > 100 µM
NCI-H460 lung
  TGI: > 100 µM
CAKI-1 renal
  TGI: > 100 µM

## Clc1cccc(C2SCc3nc4ccccc4n32)c1Cl (configuration not stated)
M14 melanoma
  TGI: 30.5 µM
UACC-257 melanoma
  TGI: 28.5 µM
ACHN renal
  TGI: 35.3 µM
HOP-62 NSCLC
  TGI: 32 µM
SK-MEL-2 melanoma
  TGI: 32.2 µM
OVCAR-3 ovarian
  TGI: 33.7 µM
NCI-H460 lung
  TGI: 34.6 µM
CAKI-1 renal
  TGI: 34.1 µM

## O=[N+]([O-])C(=C(c1ccccc1)c1ccccc1)[N+](=O)[O-]
M14 melanoma
  TGI: 25.4 µM
UACC-257 melanoma
  TGI: 25.8 µM
ACHN renal
  TGI: 25.5 µM
SK-MEL-2 melanoma
  TGI: 6.83 µM
OVCAR-3 ovarian
  TGI: 35.5 µM
NCI-H226 lung
  TGI: 61.5 µM
NCI-H460 lung
  TGI: 21 µM
CAKI-1 renal
  TGI: 43.2 µM

## Cc1ccc(C)c2sc3cc(=O)ccc-3nc12
M14 melanoma
  TGI: 42.7 µM
UACC-257 melanoma
  TGI: > 100 µM
ACHN renal
  TGI: > 100 µM
HOP-62 NSCLC
  TGI: > 100 µM
SK-MEL-2 melanoma
  TGI: > 100 µM
OVCAR-3 ovarian
  TGI: > 100 µM
NCI-H226 lung
  TGI: > 100 µM
NCI-H460 lung
  TGI: > 100 µM
CAKI-1 renal
  TGI: 70.5 µM

## CC(C)(C)c1ccc(C(O)(c2ccc(C(C)(C)C)cc2)c2ccc(C(C)(C)C)cc2)cc1
M14 melanoma
  TGI: > 100 µM
ACHN renal
  TGI: > 100 µM
HOP-62 NSCLC
  TGI: > 100 µM
SK-MEL-2 melanoma
  TGI: > 100 µM
MALME-3M melanoma
  TGI: > 100 µM
OVCAR-3 ovarian
  TGI: > 100 µM
NCI-H226 lung
  TGI: > 100 µM
NCI-H460 lung
  TGI: > 100 µM
CAKI-1 renal
  TGI: > 100 µM

## C[P+](C)(CC(F)(F)F)c1ccccc1
M14 melanoma
  TGI: > 100 µM
UACC-257 melanoma
  TGI: > 100 µM
ACHN renal
  TGI: > 100 µM
HOP-62 NSCLC
  TGI: > 100 µM
SK-MEL-2 melanoma
  TGI: > 100 µM
MALME-3M melanoma
  TGI: > 100 µM
OVCAR-3 ovarian
  TGI: > 100 µM
NCI-H226 lung
  TGI: > 100 µM
NCI-H460 lung
  TGI: > 100 µM

## COc1ccc(/C=C/CO)cc1OC
UACC-257 melanoma
  TGI: > 100 µM
ACHN renal
  TGI: > 100 µM
SK-MEL-2 melanoma
  TGI: > 100 µM
MALME-3M melanoma
  TGI: > 100 µM
OVCAR-3 ovarian
  TGI: > 100 µM
NCI-H226 lung
  TGI: > 100 µM
